The values below come from ChEMBL document CHEMBL5335777 (Eur J Med Chem, 2023).

A short description of series [1]: Cytotoxicity against human CCD-986Sk cells assessed as inhibition of cell growth incubated for 72 hrs by MTT assay. It is filed as toxicity, cell-based. A general note: Tetrazolium dyes change colour on reduction, which living cells bring about.
Series [2] deals with NCI-H1792. Put plainly: Antiproliferative activity against human NCI-H1792 cells harboring heterozygous KRAS G12C mutant assessed as inhibition of cell growth incubated for 72 hrs by MTT assay. It is filed as functional, cell-based. Particulars: NCI-H1792, 72 h.
Series [3] in a line: Clearance in NOD-SCID mouse at 15 mg/kg, ip administered as single dose and measured upto 48 hrs by HPLC/MS analysis. The series is classed as ADME, organism-based. Particulars: in vivo.
Series [4] deals with NCI-H1792. Put plainly: Antiproliferative activity against human NCI-H1792 cells harboring KRAS G12C mutant assessed as cell viability at 25 uM incubated for 72 hrs by MTT assay relative to control. It is filed as functional. Particulars: read-out: Activity.
A short description of series [5]: Cytotoxicity against HUVEC cells immortalized with TERT assessed as inhibition of cell growth incubated for 72 hrs by MTT assay. It is filed as toxicity, cell-based. Particulars: human.
The species entered for series [6] is Homo sapiens. Put plainly: Inhibition of GDP-bound human KRAS 149stop G12C mutant expressed in Escherichia coli BL21 Rosetta cells assessed as inhibition of SOS1 mediated nucleotide exchange at 250 uM measured after 24 hrs by fluorescence based analysis.
Series [7] concerns NCI-H1792. Put plainly: Antiproliferative activity against human NCI-H1792 cells harboring KRAS G12C mutant assessed as reduction in cell viability at 2.5 uM incubated for 72 hrs by MTT assay. The series is classed as functional, cell-based.
A short description of series [8]: Volume of distribution in NOD-SCID mouse at 15 mg/kg, ip administered as single dose and measured upto 48 hrs by HPLC/MS analysis. Particulars: in vivo. It is filed as ADME, organism-based.
In series [9] the test system is NCI-H1792. Nature of the series: Antitumor activity against human NCI-H1792 cells harboring KRAS G12C mutant xenografted in immunodeficient NOD-SCID mouse assessed as reduction in tumor growth at 5 to 30 mg/kg, ip administered for 5 times at 5 mg/kg in first week followed by administration at 20 mg/kg 5 times in second week and further administered 30 mg/kg 3 times in third week measured 17 days post treatment initiation and 35 days post tumor transplantation by digital caliper based analysis relative to control. Particulars: dose 5-30 mg/kg, time 17 day. The arrangement: scale not given: the % may be the effect or the level left. The series is classed as functional. A general note: A xenograft is tissue or cells of one species grown in another, often human tumour cells in immunodeficient mice.

A short description of series [10]: Tmax in NOD-SCID mouse at 15 mg/kg, ip administered as single dose and measured upto 48 hrs by HPLC/MS analysis. The series is classed as ADME, organism-based. To be noted: in vivo.
Series [11] has as its system LCLC-103H cell line. Nature of the series: Antitumor activity against human LCLC-103H cells harboring wild type KRAS xenografted in immunodeficient NOD-SCID mouse assessed as tumor volume at 5 to 30 mg/kg, ip administered for 5 times at 5 mg/kg in first week followed by administration at 20 mg/kg 5 times in second week and further administered 30 mg/kg 3 times in third week measured 17 days post treatment initiation and 35 days post tumor transplantation by digital caliper based analysis. It is filed as functional. To be noted: dose 5-30 mg/kg, time 17 day.

The nature of series [12]: Half life in NOD-SCID mouse at 15 mg/kg, ip administered as single dose and measured upto 48 hrs by HPLC/MS analysis. It is filed as ADME, organism-based. Particulars: in vivo.
A further series concerns MIA PaCa-2. Nature of the series: Antiproliferative activity against human MIA PaCa-2 cells harboring homozygous KRAS G12C mutant assessed as inhibition of cell growth incubated for 72 hrs by MTT assay. The series is classed as functional, cell-based. To be noted: MIA PaCa-2, 72 h.
Series [13] in a line: Toxicity in immunodeficient NOD-SCID mouse xenografted with human LCLC-103H cells harboring wild type KRAS assessed as body weight at 5 to 30 mg/kg, ip administered for 5 times at 5 mg/kg in first week followed by administration at 20 mg/kg 5 times in second week and further administered 30 mg/kg 3 times in third week measured 17 days post treatment initiation and 35 days post tumor transplantation (reference value: 2.6 g). Particulars: in vivo, 408 h, dose 5-30 mg/kg, time 17 day. It is filed as organism-based.

Series [14] is described as follows: AUCt in NOD-SCID mouse at 15 mg/kg, ip administered as single dose and measured upto 48 hrs by HPLC/MS analysis. The series is classed as ADME, organism-based. Also noted: dose 15 mg/kg, time < 48 hrs, route ip. To be noted: in vivo.
Series [15] is described as follows: Antiproliferative activity against human HCA-7 cells harboring wild type KRAS assessed as inhibition of cell growth incubated for 72 hrs by MTT assay. The series is classed as functional, cell-based, HCA7. To be noted: HCA-7, 72 h.
Series [16] can be described thus: Toxicity in immunodeficient NOD-SCID mouse xenografted with human NCI-H1792 cells harboring KRAS G12C mutant assessed as body weight at 5 to 30 mg/kg, ip administered for 5 times at 5 mg/kg in first week followed by administration at 20 mg/kg 5 times in second week and further administered 30 mg/kg 3 times in third week measured 17 days post treatment initiation and 35 days post tumor transplantation (reference value: 6.6 g). The series is classed as organism-based. To be noted: in vivo, 408 h, dose 5-30 mg/kg, time 17 day.

The species named for series [17] is Homo sapiens. Put plainly: Inhibition of GDP-bound human KRAS 149stop G12C mutant expressed in Escherichia coli BL21 Rosetta cells assessed as inhibition of EDTA mediated nucleotide exchange at 250 uM measured after 24 hrs by fluorescence based analysis.
Series [18] is described as follows: Cmax in NOD-SCID mouse at 15 mg/kg, ip administered as single dose and measured upto 48 hrs by HPLC/MS analysis. The series is classed as ADME, organism-based. Also noted: time < 48 hrs, dose 15 mg/kg, route ip. Particulars: in vivo.
In the next series the test system is NCI-H358. Put plainly: Antiproliferative activity against human NCI-H358 cells harboring heterozygous KRAS G12C mutant assessed as inhibition of cell growth incubated for 72 hrs by MTT assay. The series is classed as functional, cell-based. Particulars: NCI-H358, 72 h.
Series [19] is filed under the species Homo sapiens. Put plainly: Selectivity ratio of IC50 for human MRC5 cells to IC50 for human NCI-H358 cells harboring heterozygous KRAS G12C mutant.
In the next series the test system is A549. Put plainly: Antiproliferative activity against human A549 cells harboring homozygous KRAS G12S mutant assessed as inhibition of cell growth incubated for 72 hrs by MTT assay. The series is classed as functional, cell-based. To be noted: A549, 72 h.
A further series deals with BXPC-3. Put plainly: Antiproliferative activity against human BXPC-3 cells harboring wild type KRAS assessed as inhibition of cell growth incubated for 72 hrs by MTT assay. Particulars: BXPC-3, 72 h. The series is classed as functional, cell-based.
For series [20], the species on record is Homo sapiens. Nature of the series: Selectivity ratio of IC50 for human MRC5 cells to IC50 for human NCI-H1792 cells harboring homozygous KRAS G12C mutant.
A further series deals with PANC-1. Put plainly: Antiproliferative activity against human PANC-1 cells harboring heterozygous KRAS G12D mutant assessed as inhibition of cell growth incubated for 72 hrs by MTT assay. It is filed as functional, cell-based. Particulars: PANC-1, 72 h.
Series [21] can be described thus: Selectivity ratio of IC50 for human LCLC-103H cells harboring wild type KRAS to IC50 for human SW1573 cells harboring homozygous KRAS G12C mutant. It is filed as functional.
Series [22] can be described thus: Selectivity ratio of IC50 for human BXPC-3 cells harboring wild type KRAS to IC50 for human MIA PaCa-2 cells harboring homozygous KRAS G12C mutant. The series is classed as functional.
Series [23] in a line: Cytotoxicity against human MRC5 cells assessed as inhibition of cell growth incubated for 72 hrs by MTT assay. It is filed as toxicity, cell-based.
The species entered for series [24] is Homo sapiens. Put plainly: Selectivity ratio of IC50 for human MRC5 cells to IC50 for human MIA PaCa-2 cells harboring homozygous KRAS G12C mutant.
Series [25] in a line: Selectivity ratio of IC50 for human LCLC-103H cells harboring wild type KRAS to IC50 for human NCI-H1792 cells harboring […] KRAS G12C mutant. It is filed as functional.
The nature of series [26]: Selectivity ratio of IC50 for human BXPC-3 cells harboring wild type KRAS to IC50 for human PANC-1 cells harboring heterozygous KRAS G12D mutant. It is filed as functional.
For another series, the system named is SW480. Nature of the series: Antiproliferative activity against human SW480 cells harboring homozygous KRAS G12V mutant assessed as inhibition of cell growth incubated for 72 hrs by MTT assay. To be noted: SW480, 72 h. The series is classed as functional, cell-based.
A short description of series [27]: Selectivity ratio of IC50 for human LCLC-103H cells harboring wild type KRAS to IC50 for human A549 cells harboring homozygous KRAS G12S mutant. It is filed as functional.
A further series relates to SW1573. Nature of the series: Antiproliferative activity against human SW1573 cells harboring homozygous KRAS G12C mutant assessed as inhibition of cell growth incubated for 72 hrs by MTT assay. The series is classed as functional, cell-based. To be noted: SW1573, 72 h.
Series [28] concerns LCLC-103H cell line. Put plainly: Antiproliferative activity against human LCLC-103H cells harboring wild type KRAS assessed as inhibition of cell growth incubated for 72 hrs by MTT assay. It is filed as functional, cell-based.
Series [29] can be described thus: Selectivity ratio of IC50 for human LCLC-103H cells harboring wild type KRAS to IC50 for human NCI-H358 cells harboring heterozygous KRAS G12C mutant. It is filed as functional.
Series [30] can be described thus: Selectivity ratio of IC50 for human MRC5 cells to IC50 for human SW1573 cells harboring homozygous KRAS G12C mutant. The series is classed as toxicity. To be noted: MRC5 cells versus SW1573 cells (homozygous KRAS G12C mutant), read-out: Ratio IC50.

By IC50 is commonly meant the midpoint of a concentration-inhibition curve. As usually defined, the pIC50 is the negative decadic logarithm of the IC50, by convention in mol/L. The CL/F is the apparent clearance, not corrected for the fraction that reaches the circulation. The Tmax is the time at which the peak concentration occurs. As a reminder, the half-life is the time needed for the level to fall by half in the phase considered. A word on the AUC(0-t): it is the area under the concentration-time curve up to a stated or last time point. The term Cmax denotes the maximum level reached in the sampled fluid or tissue.

pIC50: −log10 of the molar value. The source made the active and inactive calls. Some results are limits rather than exact numbers.

As for `C=CC(=O)N1CCN(c2ncnc3c(F)c(-c4c(O)cccc4F)c(Cl)cc23)CC1`, the IC50 at 72 h worked out at 52.2 µM in series [1] and 0.7 µM in [5]. Moreover, the pIC50 in the series on NCI-H1792 [2] is 4.96; in the series on MIA PaCa-2, 6.30; in [15] it was 4.63; with NCI-H358 it was 6.52. This compound also gave a CL/F in series [3] of 1.37 mL/min. For the same compound, the viability at 25 µM in the series on NCI-H1792 [4] was under 50%. For the same compound, the inhibition entry in the series listed under Homo sapiens [6] and in the series listed under Homo sapiens [17] was “Active” throughout. In the series with NCI-H1792 [7], the outcome was Active. In series [8], this compound yielded a Vd of 363 mL. Further, the Activity with NCI-H1792 [9] is on record as 17.9%; in the series with LCLC-103H cell line [11], 7.9 mm3; in [13] it was 0.8 g; in [16], 3.7 g. Besides, the Tmax in series [10] was determined as 0.25 h. In series [12], this compound gave a half-life of 2.9 h. The AUC(0-t) at 48 h in series [14] was found to be 3740 ng·h/mL. This compound also gave a Cmax in series [18] of 5850 ng/mL.

As to `C=CC(=O)N1CC(N2CCN(C(=O)CNc3cc(C4(C)CC4)c(Cl)cc3O)CC2)C1`, the Ratio IC50 in the series listed under Homo sapiens [19] is 11; in the series filed under Homo sapiens [20] it was 2.7; in [21] it was 1.6; in series [22], 6.4; in the series filed under Homo sapiens [24], 13; in series [25], 1.5. In addition, the figures for the “Ratio IC50” value in series [26], in series [27] and in series [29] were 0.6, 1.2 and 6, respectively. Moreover, the pIC50 is 4.55 in the series with NCI-H1792 [2]; 4.45 with A549; 4.43 with BXPC-3; 4.24 in the series on PANC-1; 5.24 in the series with MIA PaCa-2; 4.56 in the series on SW480. For the same compound, the figures for the pIC50 in the series on SW1573, with LCLC-103H cell line [28] and with NCI-H358 were 4.59, 4.38 and 5.16, respectively. The viability at 25 µM in the series with NCI-H1792 [4] is under 50%. Moreover, the inhibition result in the series filed under Homo sapiens [6] and in the series listed under Homo sapiens [17] was “Active” in each case. Besides, the result with NCI-H1792 [7] was Active. In addition, the IC50 at 72 h in [23] came out at 75.3 µM. Further, the selectivity ratio in series [30] is 2.9.
